From patent US20080171705A1, “METHODS OF INDUCING AND TREATING VASCULAR DISEASE” (priority 2007, published 2008) come the findings set out here.

Bounds are passed on as bounds.

Data set [1] is described as follows: Sirolimus whole blood pharmacokinetics (LC-MS/MS). The following applies: i.p., daily, 0.5, 1.0 and 4.0 mg/kg. It is filed as in vivo, apoE^−/− mice. The procedure: (§1) Upon initiation of the pro-atherogenic diet and osmotic mini-pump implantation, mice were randomly assigned to four groups; namely, vehicle control, rapamycin or sirolimus 0.5 mg/kg, sirolimus 1.0 mg/kg and sirolimus 4.0 mg/kg body weight. The defined amount of sirolimus was dissolved in ethanol, brought up in a vehicle comprising 0.2 percent Sodium carboxymethylcellulose and 0.25 percent tween 80) and administrated to mice (i.p., daily).
Sirolimus was quantitated using liquid-liquid extraction and reverse-phase liquid chromatography mass spectrometry (LC-MS/MS). Briefly, 100 μl of mouse whole blood sample underwent protein precipitation with 5 percent Methanol/Zinc sulfate solution containing the internal standard ascomycin. After centrifugation of the resulting solution, the liquid mixture proceeded with liquid-liquid extraction with 1-chlorobutane. The combined organic extract was then blown down to dryness and reconstituted with 50:50 Methanol:20 mM ammonium acetate solution. The samples were analyzed on API-5000 using C18 reverse-phase chromatography in Multiple Reaction Monitoring (MRM) mode using atmospheric pressure chemical ionization (APCI) approach. The calibration standard curve results for sirolimus in mouse whole blood were acceptable from 0.5 ng/ml to 10,000 ng/ml with correlation coefficient of 0.998. The percent bias for the calibration standards ranged from about […] to about 8.0 percent.
The regimen of sirolimus administration (i.p., daily, 0.5, 1.0, and 4.0 mg/kg) results in significant increase of whole blood sirolimus levels in the apoE^−/− mice within 24 hours post injection. The blood drug levels reached peak level at 1 hour post injection, dropped to approximately 30 to 40 percent at 6 hours and remained at trace level at 24 hours.

For data set [2], the system named is apoE^−/− mice. Description: Health status, body weight and re-suturing incidence post mini-pump surgery. It is filed as in vivo.
Text: (§2) ApoE^−/− mice (backcrossed ten times to the C57BL/6 background) were purchased from The Jackson Laboratory. The mice were kept on a twelve-hour light/twelve-hour dark regimen upon arrival. All animal experiments were approved by the IACUC of the Consumer & Personal Product Worldwide, in accordance with AAALAC guidelines. Eight week old, male apoE^−/− mice were fed a normal mouse-chow diet (RP5001; PMI Feeds Inc., St. Louis, Mo.) and acclimated for one week before switching to a pro-atherogenic high fat, high cholesterol, diet (“Western diet”, 21% fat, 0.2% cholesterol, diet No. 88137, Harlan-Teklad, Madison, Wis.) for four weeks.
(§3) Upon initiation of the pro-atherogenic diet, Alzet osmotic mini-pumps (Model 2004; ALZA Scientific Products, Mountain View, Calif.) were implanted into the apoE^−/− mice subcutaneously. The mini-pumps were loaded with angII (EMD Biosciences, San Diego, Calif.) at the delivery rate of 1,000 ng/min/kg for twenty-eight days. The mice were anesthetized using isoflurane for the implantation of the mini-pumps. Small incisions in the lower back of the neck were made and the mini-pumps were inserted into the subcutaneous space of the mice. The incisions were then closed using sterile staplers. Triple antibiotic ointment was applied to each incision post surgery. The mice on the high fat, high cholesterol diet were sacrificed by CO2 inhalation twenty-eight days post mini-pump implantation as is explained in detail subsequently.
as §1
The data is depicted as re-suturing incedince post surgery per group size. A clear increase of the suture index is observed in response to sirolimus administration in a dose dependent manner.

Data set [3] can be described thus: Plasma lipids (total cholesterol, triglycerides, LDL and HDL cholesterol). It is filed as in vivo, apoE^−/− mice.
Text: as §2, §3, §1
Plasma triglyceride and total cholesterol levels were determined via an automated enzymatic technique (Equal Diagnostic Inc., Exton, Pa.). Mouse lipoproteins were separated by fast protein liquid chromatography (FPLC) analysis of plasma using 2 Superose 6 columns in series (Pharmacia Biotech Inc., Piscataway, N.J.). Aliquots of mouse plasma (100 μl) were injected onto the column, separated with a buffer containing 0.15 M NaCl, 0.01 M Na2HPO4, and 0.1 mM EDTA (pH 7.5) at a flow rate of 0.5 mL/min, and analyzed for lipids.

The test system of data set [4] is apoE^−/− mice. As to the kind of experiment: Abdominal aortic adventitia lesion analysis (incidence and severity). It is filed as in vivo. As to conditions: 1 of 22 mice; vehicle control 30 percent, 3 of 10 mice. The source says: ApoE^−/− mice (backcrossed ten times to the C57BL/6 background) were purchased from The Jackson Laboratory. The mice were kept on a twelve-hour light/twelve-hour dark regimen upon arrival. All animal experiments were approved by the IACUC of the Consumer & Personal Product Worldwide, in accordance with AAALAC guidelines. Eight week old, male apoE^−/− mice were fed a normal mouse-chow diet (RP5001; PMI Feeds Inc., St. Louis, Mo.) and acclimated for one week before switching to a pro-atherogenic high fat, high cholesterol, diet (“Western diet”, 21% fat, 0.2% cholesterol, diet No. 88137, Harlan-Teklad, Madison, Wis.) for four weeks. […]
The abdominal aorta was subjected to abdominal aortic adventitia lesion analysis. […] Classification of the adventitia lesions was determined according to the scale based on the gross appearance of the aorta reported by Daugherty et al. Briefly, I: Dilated lumen in the supra-renal region of the aorta with no thrombus; II: Remodeled tissue in the supra-renal region that frequently contains thrombus; III: A pronounced bulbous form of type II that contains thrombus; IV: A form in which there are multiple adventitia lesions containing thrombus, some overlapping, in the suprarenal area of the aorta.

On to `CO[C@H]1C[C@@H]2CC[C@@H](C)[C@@](O)(O2)C(=O)C(=O)N2CCCC[C@H]2C(=O)O[C@H]([C@H](C)C[C@@H]2CC[C@@H](O)[C@H](OC)C2)CC(=O)[C@H](C)/C=C(\C)[C@@H](O)[C@@H](OC)C(=O)[C@H](C)C[C@H](C)/C=C/C=C/C=C/1C` [sirolimus], for which the “blood drug level at 6 hours (relative to peak level)” value in data set [1] (6 hours post injection) is 30 to 40%. Further, the “blood drug level at 24 hours” value in data set [1] (24 hours post injection) is reported as “trace level”. Besides, the “time of peak whole blood drug level post injection” value in data set [1] (whole blood) stood at 1 h. Also, the body weight entry with apoE^−/− mice [2] (all 3 sirolimus treated groups, no statistical significance) is on record as “trend of decreased body weight”. For the same compound, in the data set with apoE^−/− mice [2] (i.p., daily, 0.5, 1.0 and 4.0 mg/kg, angII infusion, high fat, high cholesterol diet), the health status entry is recorded as “not overtly affected”. The “re-suturing incidence post surgery (wound healing)” value with apoE^−/− mice [2] (post mini-pump implantation, dose dependent) is reported as “increased incidence of re-suturing”. In addition, the “elevation of LDL cholesterol” value in data set [3] (all sirolimus treated mice) is recorded as > 60%. In addition, the “increase of plasma total cholesterol level vs vehicle control” value in data set [3] (i.p., daily, 0.5, 1.0 and 4.0 mg/kg, angII, Western diet, 28 days) was in the range of 44 to 50%. For the same compound, the “increase of HDL cholesterol” value in data set [3] (mice receiving sirolimus) is given as 55 to 81%. For the same compound, in data set [3] (regardless of the dosage employed), the triglyceride result was “trend of elevated triglyceride”. In the data set with apoE^−/− mice [4], the “incidence of abdominal aortic adventitia lesion” value is listed as 4.5%.
